Data on 19 molecules can be found in patent US9695154B2, “Heteroaryl inhibitors of sumo activating enzyme” (MILLENNIUM PHARMACEUTICALS, INC., priority 2013, dated 2017).

The target in the experiment is T1, recombinant human SAE enzyme (Homo sapiens, UniProt Q9UBT2).
T1 sequence (Q9UBT2 1-640): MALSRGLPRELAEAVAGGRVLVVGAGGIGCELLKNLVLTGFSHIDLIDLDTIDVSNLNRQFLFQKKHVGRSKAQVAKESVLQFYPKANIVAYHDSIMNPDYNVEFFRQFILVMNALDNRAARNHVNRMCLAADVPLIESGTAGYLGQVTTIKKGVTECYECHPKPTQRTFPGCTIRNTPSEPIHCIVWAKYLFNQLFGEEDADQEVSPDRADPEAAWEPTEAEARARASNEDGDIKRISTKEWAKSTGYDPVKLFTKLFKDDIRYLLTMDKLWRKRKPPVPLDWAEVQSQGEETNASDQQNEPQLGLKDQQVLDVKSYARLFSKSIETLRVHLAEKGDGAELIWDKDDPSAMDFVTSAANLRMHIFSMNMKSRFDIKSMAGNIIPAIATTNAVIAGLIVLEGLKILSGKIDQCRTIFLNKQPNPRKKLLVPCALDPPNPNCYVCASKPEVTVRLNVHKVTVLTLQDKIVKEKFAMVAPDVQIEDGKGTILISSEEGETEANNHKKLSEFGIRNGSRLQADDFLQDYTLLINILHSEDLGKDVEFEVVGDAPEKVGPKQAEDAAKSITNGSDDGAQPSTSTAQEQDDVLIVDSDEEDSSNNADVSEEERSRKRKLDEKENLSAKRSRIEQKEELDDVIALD
T1 sequence (Q9UBE0 1-346 partner): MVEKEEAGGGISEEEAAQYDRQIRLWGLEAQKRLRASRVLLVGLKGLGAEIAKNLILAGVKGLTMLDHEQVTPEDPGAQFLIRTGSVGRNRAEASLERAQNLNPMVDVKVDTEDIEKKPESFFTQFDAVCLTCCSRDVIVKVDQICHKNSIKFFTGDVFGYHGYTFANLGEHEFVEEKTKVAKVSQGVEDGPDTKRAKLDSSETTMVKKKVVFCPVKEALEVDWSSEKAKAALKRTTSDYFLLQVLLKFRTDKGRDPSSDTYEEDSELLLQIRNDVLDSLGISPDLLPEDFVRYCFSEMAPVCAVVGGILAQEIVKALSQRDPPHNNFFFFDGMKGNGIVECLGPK
As to the kind of experiment: SAE HTRF Enzyme Assay. In kind it is biochemical. The following applies: for IC50: class symbols A-C; for inhibition at 0.111 µM: compound concentration 0.111 μM, read-out: Percent Inhibition. In short, it runs like this: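 SAE 0.11 nM; ATP 0.5 μM; Sumo-Flag 0.125 μM; Ubc9-GST 0.01 μM; 250 μM GSH, 5 mM MgCl2, pH 7.5. 105 min, 24° C. EDTA/KF stop plus Eu/APC antibodies, 2 h, TR-FRET. % inhibition or IC50.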
Background: Time-resolved FRET reads energy transfer from a long-lived donor to a nearby acceptor.

A word on the IC50: it is the point on the concentration scale where inhibition reaches its midpoint. Usually inhibition stands for the drop in the measured response relative to a control, in per cent. Regarding `Cc1cccc(Cn2nc(C(=O)c3cncnc3N[C@@H]3C[C@H](COS(N)(=O)=O)[C@@H](O)C3)cc2C)c1` [Compound I-248, {(1R,2S,4R)-2-hydroxy-4-[(5-{[5-methyl-1-(3-methylbenzyl)-1H-pyrazol-3-yl]carbonyl}pyrimidin-4-yl)amino]cyclopentyl}methyl sulfamate], the IC50 was less than 10 nM and the inhibition at 0.111 µM is 99%.
`N#Cc1ccccc1Cn1ccc(C(=O)c2cncnc2N[C@@H]2C[C@H](COS(N)(=O)=O)[C@@H](O)[C@H]2O)n1` [Compound I-249, {(1R,2R,3S,4R)-4-[(5-{[1-(2-cyanobenzyl)-1H-pyrazol-3-yl]carbonyl}pyrimidin-4-yl)amino]-2,3-dihydroxycyclopentyl}methyl sulfamate]: the IC50 was less than 10 nM and the inhibition at 0.111 µM is 97%.
Regarding `NS(=O)(=O)OC[C@H]1C[C@@H](Nc2ncncc2C(=O)c2ccn(Cc3cccc(N4CCOCC4)c3)n2)C[C@@H]1O` [Compound I-251, [(1R,2S,4R)-2-hydroxy-4-{[5-({1-[3-(morpholin-4-yl)benzyl]-1H-pyrazol-3-yl}carbonyl)pyrimidin-4-yl]amino}cyclopentyl]methyl sulfamate], the half-inhibitory concentration (IC50) fell in the range of 10 to 100 nM and the inhibition at 0.111 µM came out at 71%.
For `NS(=O)(=O)OC[C@H]1C[C@@H](Nc2ncncc2C(=O)c2ccn(CC3=CCCCC3)n2)C[C@@H]1O` [Compound I-252, {(1R,2S,4R)-4-[(5-{[1-(cyclohex-1-en-1-ylmethyl)-1H-pyrazol-3-yl]carbonyl}pyrimidin-4-yl)amino]-2-hydroxycyclopentyl}methyl sulfamate] the same measures were less than 10 nM and 97%.
For `N#Cc1ccccc1Cn1ccc(C(=O)c2cncnc2N[C@@H]2C[C@H](COS(N)(=O)=O)[C@@H](O)C2)n1` [Compound I-253, {(1R,2S,4R)-4-[(5-{[1-(2-cyanobenzyl)-1H-pyrazol-3-yl]carbonyl)pyrimidin-4-yl)amino]-2-hydroxycyclopentyl}methyl sulfamate] the same measures were 10 to 100 nM and 91%.
For `NS(=O)(=O)OC[C@H]1C[C@@H](Nc2ncncc2C(=O)c2cc(Cl)n(Cc3ccc(Cl)o3)c2)[C@@H](F)[C@@H]1O` [Compound I-254, [(1R,2R,3R,4R)-4-{[5-({5-chloro-1-[(5-chloro-2-furyl)methyl]-1H-pyrrol-3-yl}carbonyl)pyrimidin-4-yl]amino}-3-fluoro-2-hydroxycyclopentyl]methyl sulfamate], the IC50 is less than 10 nM and the inhibition at 0.111 µM stood at 99%.
For `NS(=O)(=O)OC[C@H]1C[C@@H](Nc2ncncc2C(=O)c2ccn(S(=O)(=O)c3cccc(Br)c3)c2)C[C@@H]1O` [Compound I-255, [(1R,2S,4R)-4-{[5-({1-[(3-bromophenyl)sulfonyl]-1H-pyrrol-3-yl}carbonyl)pyrimidin-4-yl]amino}-2-hydroxycyclopentyl]methyl sulfamate], in that order: less than 10 nM and 97%.
For `NS(=O)(=O)OC[C@H]1C[C@@H](Nc2ncncc2C(=O)c2ccn(Cc3cccc(OC(F)F)c3)n2)[C@H](O)[C@@H]1O` [Compound I-256, [(1R,2R,3S,4R)-4-{[5-({1-[3-(difluoromethoxy)benzyl]-1H-pyrazol-3-yl}carbonyl)pyrimidin-4-yl]amino}-2,3-dihydroxycyclopentyl]methyl sulfamate], in that order: less than 10 nM and 99%.
Consider `NS(=O)(=O)OC[C@H]1C[C@@H](Nc2ncncc2C(=O)c2ccn(Cc3ccc(C(F)(F)F)s3)c2)[C@@H](F)[C@@H]1O` [Compound I-257, [(1R,2R,3R,4R)-3-fluoro-2-hydroxy-4-({5-[(1-{[5-(trifluoromethyl)-2-thienyl]methyl}-1H-pyrrol-3-yl)carbonyl]pyrimidin-4-yl}amino)cyclopentyl]methyl sulfamate], for which the half-inhibitory concentration (IC50) is less than 10 nM and the inhibition at 0.111 µM is 98%.
For `NS(=O)(=O)OC[C@H]1C[C@@H](Nc2ncncc2C(=O)c2ccn(Cc3cc(F)cc(C(F)(F)F)c3)n2)[C@H](O)[C@@H]1O` [Compound I-258, [(1R,2R,3S,4R)-4-{[5-({1-[3-fluoro-5-(trifluoromethyl)benzyl]-1H-pyrazol-3-yl}carbonyl)pyrimidin-4-yl]amino}-2,3-dihydroxycyclopentyl]methyl sulfamate] the same measures were less than 10 nM and 97%.
For `NS(=O)(=O)OC[C@H]1C[C@@H](Nc2ncncc2C(=O)c2ccn(Cc3ccc(SC(F)(F)F)cc3)n2)[C@H](O)[C@@H]1O` [Compound I-259, [(1R,2R,3S,4R)-2,3-dihydroxy-4-({5-[(1-{4-[(trifluoromethyl)sulfanyl]benzyl}-1H-pyrazol-3-yl)carbonyl]pyrimidin-4-yl}amino)cyclopentyl]methyl sulfamate], the IC50 is less than 10 nM and the inhibition at 0.111 µM came to 95%.
For `NS(=O)(=O)OC[C@H]1C[C@@H](Nc2ncncc2C(=O)c2ccn(Cc3cc(F)cc(F)c3)n2)C[C@@H]1O` [Compound I-260, {(1R,2S,4R)-4-[(5-{[1-(3,5-difluorobenzyl)-1H-pyrazol-3-yl]carbonyl}pyrimidin-4-yl)amino]-2-hydroxycyclopentyl}methyl sulfamate], in that order: less than 10 nM and 91%.
For `NS(=O)(=O)OC[C@H]1C[C@@H](Nc2ncncc2C(=O)c2ccn(Cc3cc(C(F)(F)F)ccc3C(F)(F)F)n2)C[C@@H]1O` [Compound I-261, [(1R,2S,4R)-4-{(5-({1-[2,5-bis(trifluoromethyl)benzyl]-1H-pyrazol-3-yl}carbonyl)pyrimidin-4-yl]amino}-2-hydroxycyclopentyl]methyl sulfamate] the same measures were less than 10 nM and 97%.
With `NS(=O)(=O)OC[C@H]1C[C@@H](Nc2ccncc2C(=O)c2ccn(Cc3cccc(C(F)(F)F)c3)n2)C[C@@H]1O` [Compound I-262, [(1R,2S,4R)-2-hydroxy-4-{[3-({1-[3-(trifluoromethyl)benzyl]-1H-pyrazol-3-yl}carbonyl)pyridin-4-yl]amino}cyclopentyl]methyl sulfamate], the half-inhibitory concentration (IC50) is less than 10 nM and the inhibition at 0.111 µM was 96%.
For `NS(=O)(=O)OC[C@H]1C[C@@H](Nc2ccncc2C(=O)c2ccn(Cc3ccc(F)c(C(F)(F)F)c3)n2)C[C@@H]1O` [Compound I-263, [(1R,2S,4R)-4-{[3-({1-[4-fluoro-3-(trifluoromethyl)benzyl]-1H-pyrazol-3-yl}carbonyl)pyridin-4-yl]amino}-2-hydroxycyclopentyl]methyl sulfamate] the same measures were less than 10 nM and 91%.
For `NS(=O)(=O)OC[C@H]1C[C@@H](Nc2ncncc2C(=O)c2ccn(C3(c4cccc(Cl)c4)CC3)c2)C[C@@H]1O` [Compound I-264, [(1R,2S,4R)-4-{[5-({1-[1-(3-Chlorophenyl)cyclopropyl]-1H-pyrrol-3-yl}carbonyl)pyrimidin-4-yl]amino}-2-hydroxycyclopentyl]methyl sulfamate] the same measures were 10 to 100 nM and 90%.
For `NS(=O)(=O)OC[C@H]1C[C@@H](Nc2ncncc2C(=O)c2ccn(Cc3ccc(OC(F)(F)F)cc3)n2)[C@H](O)[C@@H]1O` [Compound I-265, [(1R,2R,3S,4R)-2,3-dihydroxy-4-{[5-({1-[4-(trifluoromethoxy)benzyl]-1H-pyrazol-3-yl}carbonyl)pyrimidin-4-yl]amino}cyclopentyl]methyl sulfamate] the same measures were less than 10 nM and 95%.
For the molecule `NS(=O)(=O)OC[C@H]1C[C@@H](Nc2ncncc2C(=O)c2ccn(Cc3ccc(C(F)(F)F)cc3C(F)(F)F)n2)[C@H](O)[C@@H]1O` [Compound I-266, [(1R,2R,3S,4R)-4-{[5-({1-[2,4-bis(trifluoromethyl)benzyl]-1H-pyrazol-3-yl}carbonyl)pyrimidin-4-yl]amino}-2,3-dihydroxycyclopentyl]methyl sulfamate], the IC50 fell in the range of 10 to 100 nM and the inhibition at 0.111 µM worked out at 87%.
For `NS(=O)(=O)OC[C@H]1C[C@@H](Nc2ncncc2C(=O)c2ccn(Cc3cc(C(F)(F)F)ccc3C(F)(F)F)n2)[C@H](O)[C@@H]1O` [Compound I-267, [(1R,2R,3S,4R)-4-{[5-({1-[2,5-bis(trifluoromethyl)benzyl]-1H-pyrazol-3-yl}carbonyl)pyrimidin-4-yl]amino}-2,3-dihydroxycyclopentyl]methyl sulfamate] the same measures were less than 10 nM and 97%.
